Assay results as given in publication PMC8704709, “Improved Anticancer Activities of a New Pentafluorothio-Substituted Vorinostat-Type Histone Deacetylase Inhibitor” (Pharmaceuticals, 2021).

Assays:
Hep-G2 cells [1] = test: Unspecific cytotoxicity (LDH release); type: cell-based, human; details: 1–10 µM, 3 and 24 h
human recombinant HDAC1 = target: T1, human recombinant HDAC1 (Homo sapiens, UniProt Q13547); test: Fluorogenic subtype-specific HDAC assay; type: biochemical; details: cell-free enzymatic assay, 1–10 µM
T1 construct: purchased BPS Biosciences, San Diego, CA, USA

Hut78 cells = test: IC50 by Annexin-V/7AAD dual staining, flow cytometry; type: cell-based; details: Homo sapiens, as determined after 48 h, means ± SEM, n ≥ 3, read-out: Growth inhibitory activity IC50, Hut78
Method: (§1) Stock solutions (10 mM) prepared by dissolution in DMSO were stored at −20 °C. Working solutions were always freshly prepared before each experiment by dilution of stock solution with medium. The final DMSO concentration never exceeded 0.25%. Treatment-induced changes in cell number were determined by crystal violet (N-hexamethylpararosaniline from Sigma Aldrich) staining. 1000 cells/well (DU145) or 1500 cells/well (Hep-G2) were seeded in 96-well plates and maintained for adherence in an incubator (37 °C, 5% CO2, humidified atmosphere) for 48 h prior to the beginning of the treatment. […] Thereafter, the cells were fixed with 1% glutaraldehyde and stained with 0.1% crystal violet. The unbound dye was removed by rinsing with water. Bound crystal violet was solubilized with 0.2% Triton X-100 (Sigma-Aldrich). Light extinction of crystal violet, which increases linearly with the cell number, was analyzed at 570 nm using an ELISA-Reader (Dynex Technologies, Denkendorf, Germany). For T-cell leukemia/lymphoma cell lines apoptosis was determined using dual staining for Annexin-V and 7AAD via flow cytometry.

SMZ1 cells = test: as above; type: cell-based; details: Homo sapiens, as determined after 48 h, means ± SEM, n ≥ 3, read-out: Growth inhibitory activity IC50, SMZ1
Method: as §1

SupT11 cells = test: as above; type: cell-based; details: Homo sapiens, as determined after 48 h, means ± SEM, n ≥ 3, read-out: Growth inhibitory activity IC50, SupT11
Method: as §1

human recombinant HDAC6 = target: T2, human recombinant HDAC6 (Homo sapiens, UniProt Q9UBN7); test: Fluorogenic subtype-specific HDAC assay; type: biochemical; details: cell-free enzymatic assay, 1–10 µM
T2 construct: purchased BPS Biosciences, San Diego, CA, USA
T2 sequence (Q9UBN7 1-1215): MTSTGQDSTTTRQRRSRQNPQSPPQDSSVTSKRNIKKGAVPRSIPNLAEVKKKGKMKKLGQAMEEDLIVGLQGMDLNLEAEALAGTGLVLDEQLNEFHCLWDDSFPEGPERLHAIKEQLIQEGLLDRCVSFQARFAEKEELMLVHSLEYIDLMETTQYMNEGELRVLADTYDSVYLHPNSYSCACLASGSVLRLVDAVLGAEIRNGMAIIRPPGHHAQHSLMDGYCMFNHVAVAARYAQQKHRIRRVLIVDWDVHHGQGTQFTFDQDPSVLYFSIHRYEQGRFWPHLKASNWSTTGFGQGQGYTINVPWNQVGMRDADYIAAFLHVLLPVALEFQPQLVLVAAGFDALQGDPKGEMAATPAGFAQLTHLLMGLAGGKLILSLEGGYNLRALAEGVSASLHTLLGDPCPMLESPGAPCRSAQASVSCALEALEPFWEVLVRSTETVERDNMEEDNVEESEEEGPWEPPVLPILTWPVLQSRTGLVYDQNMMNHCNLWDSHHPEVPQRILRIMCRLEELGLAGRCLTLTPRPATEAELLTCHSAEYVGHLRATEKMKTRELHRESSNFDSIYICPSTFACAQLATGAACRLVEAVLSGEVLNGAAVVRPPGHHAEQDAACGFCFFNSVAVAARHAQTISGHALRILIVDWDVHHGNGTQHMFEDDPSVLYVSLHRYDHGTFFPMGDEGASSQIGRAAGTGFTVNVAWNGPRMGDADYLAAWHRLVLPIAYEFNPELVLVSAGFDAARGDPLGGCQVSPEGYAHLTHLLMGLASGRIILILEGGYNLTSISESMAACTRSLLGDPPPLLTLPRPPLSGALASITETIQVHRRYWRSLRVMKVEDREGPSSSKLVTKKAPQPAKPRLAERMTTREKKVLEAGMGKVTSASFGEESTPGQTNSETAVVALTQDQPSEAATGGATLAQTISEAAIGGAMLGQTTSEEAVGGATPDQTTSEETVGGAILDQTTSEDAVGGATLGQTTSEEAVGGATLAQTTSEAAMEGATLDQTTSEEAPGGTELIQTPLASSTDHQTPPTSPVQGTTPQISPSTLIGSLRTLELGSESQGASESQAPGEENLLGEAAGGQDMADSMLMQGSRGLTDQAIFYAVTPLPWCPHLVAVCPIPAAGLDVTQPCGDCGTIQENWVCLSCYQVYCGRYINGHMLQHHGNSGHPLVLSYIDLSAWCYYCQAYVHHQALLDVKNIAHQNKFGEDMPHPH

DU145 cells = test: Unspecific cytotoxicity (LDH release); type: cell-based, human; details: 1–10 µM, 3 and 24 h
Method: To exclude unspecific cytotoxicity as the driving mode of action for antiproliferative effects, the release of lactate dehydrogenase (LDH) from DU145 cells was determined after 3 h and 24 h of treatment using the Cytotoxicity Detection Kit PLUS LDH (Roche Diagnostics GmbH, Mannheim, Germany). The assay was performed as described earlier. Cytotoxicity was determined by subtracting the percentage of LDH release into the supernatant under control conditions of those from treated samples. Measurements were performed in duplicate in n = 3 independent experiments and mean percentage changes ± SEM as compared to controls are shown.

Hep-G2 cells [2] = test: Western blot in Hep-G2 cells (acetyl-H3, Apaf-1, Bcl-2); type: cell-based, human; details: 24 h
Method: Western blots were performed as described earlier. Cells were seeded in 100 mm petri dishes, grown to almost confluency, treated for 24 h, washed and frozen, followed by lysis with RIPA Buffer, added with one cOmplete™ Mini protease Inhibitor tablet/10 mL (Roche), and quantification with Pierce^TM BCA Protein Assay Kit (Thermo Fisher Scientific). Thereafter protein levels were normalized to untreated controls so equal protein loading of 20 µg/lane. Laemmli Buffer and β-mercaptoethanol were added before probes were desaturated at 96 °C for 10 min. First, 7.5% or 12% SDS gels (Biorad, Munich, Germany) were loaded with proteins and electrophoresis was done. Thereafter, proteins were transferred to activated polyvinylidene difluoride membranes (PVDF) by electroblotting. Finally, the membranes were blocked with 1% BSA and incubated with primary antibodies over night at 4 °C. […] Only the Jurkat cells had already a high level of α-tubulin in untreated cells and, thus, drug-induced changes were not detectable in these cells.
Blots were washed three times with 1% TBS-Tween and incubated with anti-mouse or anti-rabbit peroxidase-coupled anti-IgG secondary antibodies (1:5000–1:10,000) at room temperature for 60 min. Subsequently, antibody bondage was illustrated using Clarity and Clarity Max ECL Western Blotting Substrates (Biorad, Munich, Germany) for detection and Celvin-S developer (Biostep, software SnapAndGo Vs 1.8.1) for development. […] Values were normalized to β-actin expression, which served as a loading control and compared to untreated control expressions which was set at 1. The mean ± SEM of the relative values to control are illustrated with Graph Pad Prism 8.

T1 sequence (Q13547 whole entry): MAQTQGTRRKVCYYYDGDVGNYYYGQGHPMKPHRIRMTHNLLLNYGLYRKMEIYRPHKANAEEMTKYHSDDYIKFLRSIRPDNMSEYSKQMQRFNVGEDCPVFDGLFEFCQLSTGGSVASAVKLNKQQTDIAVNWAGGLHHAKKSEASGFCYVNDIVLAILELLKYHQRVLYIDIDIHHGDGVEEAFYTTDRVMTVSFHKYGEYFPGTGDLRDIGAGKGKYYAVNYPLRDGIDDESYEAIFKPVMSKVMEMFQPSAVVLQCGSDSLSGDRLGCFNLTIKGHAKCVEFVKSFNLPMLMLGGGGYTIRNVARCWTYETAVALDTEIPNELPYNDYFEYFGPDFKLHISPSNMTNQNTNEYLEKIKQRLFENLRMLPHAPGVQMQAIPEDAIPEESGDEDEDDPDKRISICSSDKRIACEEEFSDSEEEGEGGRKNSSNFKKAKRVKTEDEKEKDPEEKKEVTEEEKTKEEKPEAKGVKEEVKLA

What does the source list for `O=C(CCCCCCC(=O)Nc1ccc(S(F)(F)(F)(F)F)cc1)NO` [SF5-SAHA]?
LDH release (unspecific cytotoxicity) (Hep-G2 cells [1]): LDH levels were even decreased; HDAC1 inhibition (comparison) (human recombinant HDAC1): comparable activities against HDAC1; IC50 (Hut78 cells): 2.4 ± 0.4 µM; IC50 (SMZ1 cells): 1.58 ± 0.29 µM; IC50 (SupT11 cells): 3.08 ± 0.33 µM; HDAC6 inhibition (comparison) (human recombinant HDAC6): distinctly stronger HDAC6 inhibition than SAHA; LDH release (unspecific cytotoxicity) (DU145 cells): did not induce significant increases in LDH release; Bcl-2 expression (Hep-G2 cells [2]; 2 µM and 4 µM): downregulated; Apaf-1 expression (Hep-G2 cells [2]; 2 and 4 µM): increased Apaf-1 expression; acetylated histone H3 level (Hep-G2 cells [2]): dose-dependent rise of H3 acetylation
